This is an account of results in paper PMC8126637 (Frontiers in Molecular Biosciences, 2021).

The test addresses T1, Universal stress protein (USP, Rv1636) (Mycobacterium tuberculosis, UniProt P9WFC9).
T1 construct: His-tagged Rv1636
In words: biochemical. In kind it is binding.

T1 sequence (P9WFC9 whole entry): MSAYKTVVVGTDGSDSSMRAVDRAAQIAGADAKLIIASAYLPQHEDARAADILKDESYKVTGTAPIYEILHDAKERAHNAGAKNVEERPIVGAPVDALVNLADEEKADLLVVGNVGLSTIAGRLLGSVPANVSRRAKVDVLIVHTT

The term Kd denotes the concentration at which binding is half-saturated. A higher Kd goes with lower affinity. On to `COc1cc(/C=C/C(=O)CC(=O)/C=C/c2ccc(O)c(OC)c2)ccc1O` [Curcumin], for which the affinity, expressed as Kd, was 17.4 ± 0.8 µM.

With `COc1cc2c(cc1OC)-c1cc(NCCCCN)nc(=O)n1CC2` [compound 19, 2-((4-aminobutyl)amino)-9,10-dimethoxy-6,7-dihydro-4H-pyrimido[6,1-a]isoquinolin-4-one], the Kd came out at 998 ± 82 µM. This Kd lies about 57-fold higher than the previous one.

The compound `NC(=O)NCCC[C@@H](NC(=O)CCn1ccc2c(Cl)cccc21)C(=O)O` [compound 20, (R)-2-(3-(4-chloro-1H-indol-1-yl)propanamido)-5-ureidopentanoic acid] displayed an equilibrium dissociation constant (Kd) of 1720 ± 731 µM.
